row,Compound,melting point
1,"CCN1C(=O)C(C(=O)Nc2cccc(C(=O)Nc3ccccc3)c2)c2cc(C(C)=O)ccc21 (stereo not drawn) [Example 1, 5-Acetyl-1-ethyl-2-oxo-2,3-dihydro-1H-indole-3-carboxylic acid (3-phenylcarbamoyl-phenyl)-amide]",173 to 175 °C
2,"CCN1C(=O)C(C(=O)Nc2cccc(C(=O)Nc3ccc(I)cc3)c2)c2cc(C(C)=O)ccc21 (stereo not drawn) [Example 9, 5-Acetyl-1-ethyl-2-oxo-2,3-dihydro-1H-indole-3-carboxylic acid [3-(4-iodo-phenylcarbamoyl)-phenyl]-amide]",205 to 210 °C
3,"CC(=O)c1ccc2c(c1)C(C(=O)Nc1cccc(C(=O)Nc3ccccc3)c1)C(=O)N2C (stereo not drawn) [Example 12, 5-Acetyl-1-methyl-2-oxo-2,3-dihydro-1H-indole-3-carboxylic acid (3-phenylcarbamoyl-phenyl)-amide]",178 to 179 °C

# Other lines, results leading:
row,melting point,Compound
1,179 to 180 °C,"CCC(=O)c1ccc2c(c1)C(C(=O)Nc1cccc(C(=O)Nc3ccccc3)c1)C(=O)N2CC (stereo not drawn) [Example 14, 1-Ethyl-2-oxo-5-propionyl-2,3-dihydro-1H-indole-3-carboxylic acid (3-phenylcarbamoyl-phenyl)-amide]"
2,197 to 203 °C,"CC(=O)c1ccc2c(c1)C(C(=O)Nc1cccc(C(=O)Nc3ccccc3)c1)C(=O)N2CC(F)(F)F (stereo not drawn) [Example 16, 5-Acetyl-2-oxo-1-(2,2,2-trifluoro-ethyl)-2,3-dihydro-1H-indole-3-carboxylic acid (3-phenylcarbamoyl-phenyl)-amide]"
3,108 to 110 °C,"O=C(N[C@@H](Cc1ccccc1)C(=O)N1CCOCC1)c1cc2cc(Cl)sc2[nH]1 [Example 19, 2-Chloro-6H-thieno[2,3-b]pyrrole-5-carboxylic acid [(1S)-benzyl-2-morpholin-4-yl-2-oxo-ethyl]-amide]"
